Test systems include IGROV1 ovarian; MOLT-4 leukemia; SK-MEL-2 melanoma; HCT-15 colon; NCI/ADR-RES ovarian; SF-295 CNS; SK-MEL-28 melanoma; SN12C renal; SR leukemia; OVCAR-3 ovarian.
Common to all, as to test: growth of human tumour cells (NCI), 48 h

Our source for the GI50 and TGI values is PubChem BioAssay (NCI).

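Test compounds were applied to cells in 96-well plates for 48 hours at 5 doses. Abbreviation: GI50, concentration required for 50% inhibition of growth. At the TGI there is no net growth.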 Bounds are passed on as bounds.

With `CCOC1OC(=O)[C@H]2[C@@H]1[C@@H]1CC[C@H]2O1` (some centres undefined), the GI50 with IGROV1 ovarian, in the assay on MOLT-4 leukemia, in the assay with SK-MEL-2 melanoma, in the assay on HCT-15 colon, in the assay with NCI/ADR-RES ovarian and with SF-295 CNS was > 100000 nM in each case. The GI50 was 378 nM in the assay with SK-MEL-28 melanoma, > 100000 nM in the assay with SN12C renal, 33800 nM in the assay on SR leukemia and > 100000 nM in the assay with OVCAR-3 ovarian. The TGI with IGROV1 ovarian, with MOLT-4 leukemia, with SK-MEL-2 melanoma, in the assay on HCT-15 colon, in the assay on NCI/ADR-RES ovarian and in the assay with SF-295 CNS was > 100 µM each time. The TGI with SK-MEL-28 melanoma was > 100 µM; with SN12C renal it was > 100 µM; in the assay on SR leukemia it was > 100000 nM; in the assay on OVCAR-3 ovarian, > 100000 nM.

As to `O=C1/C(=C/c2cccc(Br)c2)COc2ccc(O)c(O)c21`, the GI50 was 996 nM in the assay with IGROV1 ovarian; 927 nM in the assay with MOLT-4 leukemia; 1530 nM with SK-MEL-2 melanoma; 866 nM in the assay on HCT-15 colon; 2030 nM in the assay with NCI/ADR-RES ovarian; 2750 nM in the assay on SF-295 CNS. The GI50 is 1750 nM in the assay with SK-MEL-28 melanoma, 1200 nM in the assay with SN12C renal, 349 nM in the assay on SR leukemia and 675 nM with OVCAR-3 ovarian. Also, the TGI in the assay on IGROV1 ovarian stood at 2.68 µM; with MOLT-4 leukemia, 10.8 µM; with SK-MEL-2 melanoma, 3.11 µM; in the assay on HCT-15 colon, 3.88 µM; in the assay with NCI/ADR-RES ovarian, 10.3 µM; in the assay with SF-295 CNS it was 7.39 µM. Besides, the TGI in the assay with SK-MEL-28 melanoma is 3.33 µM; in the assay with SN12C renal, 3.04 µM; in the assay with SR leukemia it was 2810 nM; with OVCAR-3 ovarian it was 2070 nM.

Consider `NS(=O)(=O)c1cccc(-c2ccc3c(NC(=O)C4CC4)n[nH]c3c2)c1`, for which the GI50 with IGROV1 ovarian was > 25000 nM; with MOLT-4 leukemia, 19200 nM; in the assay with SK-MEL-2 melanoma, 8780 nM; in the assay with HCT-15 colon it was > 25000 nM; in the assay with NCI/ADR-RES ovarian, > 25000 nM; with SF-295 CNS it was > 25000 nM. For the same compound, the GI50 with SK-MEL-28 melanoma was 15700 nM; with SN12C renal, > 21100 nM; in the assay with SR leukemia it was 3590 nM; in the assay on OVCAR-3 ovarian, 6710 nM. Further, the TGI in the assay with IGROV1 ovarian was > 25 µM; with MOLT-4 leukemia, > 25 µM; in the assay on SK-MEL-2 melanoma, 24.9 µM; with HCT-15 colon it was > 25 µM; with NCI/ADR-RES ovarian, > 25 µM; in the assay on SF-295 CNS it was > 25 µM. The TGI is > 25 µM in the assay on SK-MEL-28 melanoma, > 25 µM in the assay with SN12C renal, > 25000 nM with SR leukemia and > 17600 nM in the assay with OVCAR-3 ovarian.

As to `C=C1C(=O)O[C@H]2[C@H]1CC/C(CNC(=O)/C=C/c1ccccc1)=C\CC[C@@]1(C)O[C@@H]21`, the GI50 with IGROV1 ovarian was 1700 nM; in the assay on MOLT-4 leukemia, 1470 nM; with SK-MEL-2 melanoma, 1490 nM; with HCT-15 colon, 672 nM; with NCI/ADR-RES ovarian it was 3290 nM; in the assay with SF-295 CNS, 5250 nM. Further, the GI50 with SK-MEL-28 melanoma was 1480 nM; in the assay on SN12C renal, 1150 nM; in the assay with SR leukemia it was 380 nM; in the assay with OVCAR-3 ovarian, 558 nM. Further, the TGI in the assay on IGROV1 ovarian was 5.01 µM; in the assay with MOLT-4 leukemia it was 5.22 µM; with SK-MEL-2 melanoma, 3.41 µM; in the assay on HCT-15 colon, 2.06 µM; in the assay with NCI/ADR-RES ovarian it was 14.5 µM; in the assay on SF-295 CNS, 18.7 µM. Besides, the TGI in the assay with SK-MEL-28 melanoma was determined as 4.18 µM; in the assay with SN12C renal, 2.79 µM; in the assay with SR leukemia it was 4970 nM; in the assay on OVCAR-3 ovarian it was 1830 nM.

Consider `Cc1cccc2c(Nc3ccc(NS(C)(=O)=O)cc3)c3ccc([N+](=O)[O-])cc3nc12`, for which the GI50 is 954 nM in the assay with IGROV1 ovarian; 300 nM in the assay on MOLT-4 leukemia; 2550 nM in the assay with SK-MEL-2 melanoma; 1190 nM in the assay with HCT-15 colon; 8300 nM in the assay on NCI/ADR-RES ovarian; 290 nM in the assay with SF-295 CNS. In addition, the GI50 in the assay on SK-MEL-28 melanoma was 1510 nM; with SN12C renal, 486 nM; in the assay on SR leukemia it was 59.8 nM; in the assay with OVCAR-3 ovarian, 1450 nM. Further, the TGI with IGROV1 ovarian is 3.65 µM; in the assay on MOLT-4 leukemia it was 6.09 µM; in the assay with SK-MEL-2 melanoma, 5.49 µM; in the assay on HCT-15 colon, 3.54 µM; with NCI/ADR-RES ovarian it was 47.1 µM; in the assay with SF-295 CNS, 7.21 µM. Also, the TGI with SK-MEL-28 melanoma was 4.38 µM; in the assay on SN12C renal, 7.58 µM; in the assay with SR leukemia it was 2690 nM; in the assay on OVCAR-3 ovarian, 4910 nM.

For `Brc1cccc(-c2cc(-c3ccc4nccnc4c3)[nH]n2)c1`, the GI50 was 877 nM with IGROV1 ovarian; 1520 nM with MOLT-4 leukemia; 1550 nM with SK-MEL-2 melanoma; 165 nM in the assay on HCT-15 colon; 318 nM in the assay with NCI/ADR-RES ovarian; 1110 nM in the assay on SF-295 CNS. The GI50 was 4870 nM in the assay on SK-MEL-28 melanoma, 1390 nM in the assay with SN12C renal, 139 nM in the assay on SR leukemia and 485 nM in the assay on OVCAR-3 ovarian. Further, the TGI with IGROV1 ovarian is > 250 µM; in the assay on MOLT-4 leukemia it was > 145 µM; in the assay on SK-MEL-2 melanoma, > 250 µM; with HCT-15 colon, > 250 µM; in the assay on NCI/ADR-RES ovarian, 34.3 µM; in the assay with SF-295 CNS it was > 250 µM. The TGI was > 250 µM with SK-MEL-28 melanoma, > 250 µM in the assay with SN12C renal and > 104000 nM in the assay on SR leukemia.

Take `COc1cccc(CC(C)=C(c2ccc(OCCCN(C)C)cc2)c2ccc(OCCCN(C)C)cc2)c1`: the GI50 with IGROV1 ovarian is 549 nM; in the assay on MOLT-4 leukemia, 502 nM; in the assay on SK-MEL-2 melanoma, 601 nM; with HCT-15 colon, 478 nM; with NCI/ADR-RES ovarian it was 548 nM; in the assay with SF-295 CNS it was 658 nM. Also, the GI50 in the assay with SK-MEL-28 melanoma is 448 nM; in the assay on SN12C renal, 533 nM; in the assay on SR leukemia it was 440 nM; in the assay on OVCAR-3 ovarian, 545 nM. The TGI was found to be 1.19 µM with IGROV1 ovarian; 1.11 µM in the assay on MOLT-4 leukemia; 1.65 µM with SK-MEL-2 melanoma; 0.95 µM in the assay on HCT-15 colon; 1.28 µM in the assay with NCI/ADR-RES ovarian; 1.87 µM in the assay on SF-295 CNS. Moreover, the TGI worked out at 0.822 µM in the assay with SK-MEL-28 melanoma, 1.22 µM in the assay on SN12C renal, 1210 nM in the assay on SR leukemia and 1200 nM in the assay with OVCAR-3 ovarian.
